The values below come from US20070244154A1, “Substituted Tricyclic Benzimidazoles” (Altana Pharma AG, priority 2004, published 2007).

Where only a bound is given, the exact number is not on record here.

One series deals with pentagastrin-stimulated acid secretion of the perfused rat stomach. As to the kind of experiment: Secretion-inhibiting action on the perfused rat stomach. Conditions: anesthetized female CD rat, dose 3 μmol/kg i.d. (intraduodenal). An excerpt: Testing of the Secretion-Inhibiting Action on the Perfused Rat Stomach
In Table A which follows, the influence of the compounds of the formula 1 according to the invention on the pentagastrin-stimulated acid secretion of the perfused rat stomach after intraduodenal admnistation in vivo is shown.
The abdomen of anesthetized rats (CD rat, female, 200-250 g; 1.5 g/kg i.m. urethane) was opened after tracheotomy by a median upper abdominal incision and a PVC catheter was fixed transorally in the esophagus and another via the pylorus such that the ends of the tubes just projected into the gastric lumen. The catheter leading from the pylorus led outward into the right abdominal wall through a side opening.
After thorough rinsing (about 50-100 ml), warm (37° C.) physiological NaCl solution was continuously passed through the stomach (0.5 ml/min, pH 6.8-6.9; Braun-Unita I). The pH (pH meter 632, glass electrode EA 147; φ=5 mm, Metrohm) and, by titration with a freshly prepared 0.01N NaOH solution to pH 7 (Dosimat 665 Metrohm), the secreted HCl were determined in the effluent in each case collected at an internal of 15 minutes.
The gastric secretion was stimulated by continuous infusion of […] (=1.65 ml/h) of i.v. pentagastrin (left femoral vein) about 30 min after the end of the operation (i.e. after determination of 2 preliminary fractions). The substances to be tested were administered intraduodenally in a 2.5 ml/kg liquid volume 60 min after the start of the continuous pentagastrin infusion. The body temperature of the animals was kept at a constant 37.8-38° C. by infrared irradiation and heat pads (automatic, stepless control by means of a rectal temperature sensor).
By inhibition in vivo is commonly meant the drop in the measured response relative to a control, in per cent. Low values mean little suppression, high ones strong suppression. The compound `Cc1nc2c3c(c(C(=O)N(C)C)cc2n1C)C(O)[C@H](O)[C@@H](c1ccccc1)N3` (stereo partly drawn) [Example 12, (7R,8R)-[6,7-Dihydroxy-2,3-dimethyl-8-phenyl-6,7,8,9-tetrahydro-3H-imidazo[4,5-h]quinoline-5-yl]carboxylic acid dimethylamide] showed an inhibition in vivo at 3 µmol/kg greater than 15%. As for `CNC(=O)c1cc2c(nc(C)n2C)c2c1[C@H](O)[C@H](O)[C@@H](c1ccccc1)N2` [Example 1, (6S,7R,8R)-[6,7,8,9-Tetrahydro-6,7-dihydroxy-2,3-dimethyl-8-phenyl-3H-imidazo[4,5-h]quinoline-5-yl]-carboxylic acid methylamide], the inhibition in vivo at 3 µmol/kg is greater than 15%. The compound `CNC(=O)c1cc2c(nc(C)n2C)c2c1C[C@@H](O)[C@@H](c1ccccc1)N2` [Example 11, (7R,8R)-[7-Hydroxy-2,3-dimethyl-8-phenyl-6,7,8,9-tetrahydro-3H-imidazo[4,5-h]quinoline-5-yl]-carboxylic acid methylamide] came in with an inhibition in vivo at 3 µmol/kg greater than 15%. Turning to `CNC(=O)c1cc2c(nc(C)n2C)c2c1[C@@H](CC(F)F)[C@@H](O)[C@@H](c1ccccc1)N2` [Example 10, (6R,7R,8R)-[7-Hydroxy-2,3-dimethyl-8-phenyl-6-(2,2-difluoroethyl)-6,7,8,9-tetrahydro-3H-imidazo[4,5-h]quinoline-5-yl]-carboxylic acid methylamide], the inhibition in vivo at 3 µmol/kg is greater than 15%. With `CCCCO[C@H]1c2c(C(=O)N(C)C)cc3c(nc(C)n3C)c2N[C@H](c2ccccc2)[C@H]1O` [Example 13, (6S,7R,8R)-[6-n-Butyloxy-7-hydroxy-2,3-dimethyl-8-phenyl-6,7,8,9-tetrahydro-3H-imidazo[4,5-h]quinoline-5-yl]-carboxylic acid dimethylamide], the inhibition in vivo at 3 µmol/kg is greater than 15%. In the case of `Cc1nc2c3c(c(C(=O)N(C)C)cc2n1C)C[C@@H](O)[C@@H](c1ccccc1)N3` [Example 15, (7R,8R)-[7-Hydroxy-2,3-dimethyl-8-phenyl-6,7,8,9-tetrahydro-3H-imidazo[4,5-h]quinoline-5-yl]-carboxylic acid dimethylamide], the inhibition in vivo at 3 µmol/kg is greater than 15%. In turn, `CCCCO[C@@H]1c2c(C(=O)N(C)C)cc3c(nc(C)n3C)c2N[C@H](c2ccccc2)[C@H]1O` [Example 14, (6R,7R,8R)-[6-n-Butyloxy-7-hydroxy-2,3-dimethyl-8-phenyl-6,7,8,9-tetrahydro-3H-imidazo[4,5-h]quinoline-5-yl]-carboxylic acid dimethylamide] displayed an inhibition in vivo at 3 µmol/kg greater than 15%.

Compound `CNC(=O)c1cc2c(nc(C)n2C)c2c1[C@@H](O)[C@H](O)[C@@H](c1ccccc1)N2` [Example 2, (6R,7R,8R)-[6,7,8,9-Tetrahydro-6,7-dihydroxy-2,3-dimethyl-8-phenyl-3H-imidazo[4,5-h]quinoline-5-yl]-carboxylic acid methylamide] showed an inhibition in vivo at 3 µmol/kg greater than 15%. For the compound `CCCCO[C@H]1c2c(C(=O)NC)cc3c(nc(C)n3C)c2N[C@H](c2ccccc2)[C@H]1O` [Example 3, (6S,7R,8R)-[6-n-butyloxy-6,7,8,9-tetrahydro-7-hydroxy-2,3-dimethyl-8-phenyl-3H-imidazo[4,5-h]quinoline-5-yl]-carboxylic acid methylamide], the inhibition in vivo at 3 µmol/kg is greater than 15%. On to `C#CCO[C@H]1c2c(C(=O)NC)cc3c(nc(C)n3C)c2N[C@H](c2ccccc2)[C@H]1O` [Example 7, (6S,7R,8R)-[6,7,8,9-Tetrahydro-7-hydroxy-2,3-dimethyl-8-phenyl-6-propargyloxy-3H-imidazo[4,5-h]quinoline-5-yl]-carboxylic acid methylamide], for which the inhibition in vivo at 3 µmol/kg was greater than 15%.

In turn, `CCCCO[C@@H]1c2c(C(=O)NC)cc3c(nc(C)n3C)c2N[C@H](c2ccccc2)[C@H]1O` [Example 4, (6R,7R,8R)-[6-n-butyloxy-6,7,8,9-tetrahydro-7-hydroxy-2,3-dimethyl-8-phenyl-3H-imidazo[4,5-h]quinoline-5-yl]-carboxylic acid methylamide] yielded an inhibition in vivo at 3 µmol/kg greater than 15%.

System in a further series: not given
Test: not given
Conditions: not given
A word on the melting point: it is the temperature of the solid-liquid transition. `CNC(=O)c1cc2c(nc(C)n2C)c2c1C[C@@H](O)[C@@H](c1ccccc1)N2` [Example 11, (7R,8R)-[7-Hydroxy-2,3-dimethyl-8-phenyl-6,7,8,9-tetrahydro-3H-imidazo[4,5-h]quinoline-5-yl]-carboxylic acid methylamide] yielded a melting point of 265 to 268 °C.
